# Measurements as given in patent US20190374554A1, “USE OF OXYGENATED CHOLESTEROL SULFATES (OCS) TO TREAT INFLAMMATORY SKIN DISEASE AND SKIN LESIONS” (Virginia Commonwealth University, priority 2016, published 2019).
# Assays:
# [1] = Infusion compatibility: 25HC3S diluted in 0.9% sodium chloride infusion bag and eluted through infusion sets (potency, osmolality, pH, appearance); format: physicochemical
# Experimental: A physical and chemical compatibility study was conducted at a 30 mg, 48 mg and 300 mg 25HC3S dose in 5% dextrose and 0.9% sodium chloride infusion bags. Descriptions of the two kinds of infusion sets tested with 25HC3S product diluted in 5% dextrose and 0.9% sodium chloride are listed in Table 15. The tubing in catalog number 2H8480 infusion set was composed of polyvinylchloride (PVC), while the tubing in catalog number 2C8858 was polyethylene lined except for a short pump segment (approximately 12 inches) which was composed of PVC.
# 25HC3S for Injection and Vehicle for 25HC3S for Injection, that had been stored at 2-8° C. for approximately 16 months, were used for the compatibility study. After constitution, 30 mg (1.0 mL of constituted product), 48 mg (1.6 mL of constituted product) or 300 mg (10 mL of constituted product) were added to 100 mL infusion bags of 5% dextrose and 0.9% sodium chloride, mixed thoroughly, and stored for 24 hours at room temperature and at 2-8° C. […] Taking into consideration the overfill per infusion bag and the additional volume introduced by adding the constituted 25HC3S product to each bag, the expected concentrations of 25HC3S were 0.28 mg/mL, 0.44 mg/mL, and 2.56 mg/mL in the infusion bags. Two kinds of infusion sets were then attached to the drug containing infusion bags, and the entire contents were eluted through the infusion sets at approximately 50 mL/hour at room temperature. Samples were collected from the 25HC3S prepared infusion bags at T=0 and at 24 hours, and from the total eluent passed through the infusion sets, and tested for 25HC3S concentration using HPLC. Solution visual appearance, osmolality (using method USP<785>), and pH (using method USP<791>) were also measured on the collected samples.
# [2] = Drug solubility / drug loading in solvents and compositions; format: physicochemical
# [3] = 0.9% sodium chloride, approx. 0.28 mg/mL, bag 24 h at 25° C., Baxter 2H8480
# [4] = 0.9% sodium chloride, approx. 0.44 mg/mL, bag 24 h at 2-8° C., Baxter 2C8858
# [5] = 0.9% sodium chloride, approx. 0.44 mg/mL, bag 24 h at 2-8° C., Baxter 2H8480
# [6] = 0.9% sodium chloride, approx. 0.44 mg/mL, bag 24 h at 25° C., Baxter 2C8858
# [7] = 0.9% sodium chloride, approx. 0.44 mg/mL, bag 24 h at 25° C., Baxter 2H8480
# [8] = 0.9% sodium chloride, approx. 2.56 mg/mL, bag 24 h at 2-8° C., Baxter 2C8858
# [9] = 0.9% sodium chloride, approx. 2.56 mg/mL, bag 24 h at 2-8° C., Baxter 2H8480
# [10] = 0.9% sodium chloride, approx. 2.56 mg/mL, bag 24 h at 25° C., Baxter 2C8858
# [11] = 0.9% sodium chloride, approx. 2.56 mg/mL, bag 24 h at 25° C., Baxter 2H8480
# [12] = sodium chloride, approximately 0.28 mg/mL 25HC3S
# [13] = sodium chloride, approximately 0.44 mg/mL 25HC3S
# [14] = sodium chloride, approximately 2.56 mg/mL 25HC3S
structure (smiles),measurement,setting,value
"C[C@H](CCCC(C)(C)O)[C@H]1CC[C@H]2[C@@H]3CC=C4C[C@@H](OS(=O)(=O)[O-])CC[C@]4(C)[C@H]3CC[C@]12C.[Na+] [Formulation 25HC3S, 5-cholesten-3, 25-diol, 3-sulfate]",After Storage in Infusion Bag and Collection from Infusion Set Concentration,[1]; [3],0.272 mg/mL
same,After Storage in Infusion Bag and Collection from Infusion Set Osmolality,[1]; [3],276 mmol/kg
same,After Storage in Infusion Bag and Collection from Infusion Set pH,[1]; [3],5.78
same,After Storage in Infusion Bag and Collection from Infusion Set % Remaining Compared to T = 0,[1]; [4],(100.2%)
same,After Storage in Infusion Bag and Collection from Infusion Set Concentration,[1]; [4],0.426 mg/mL
same,After Storage in Infusion Bag and Collection from Infusion Set Osmolality,[1]; [4],281 mmol/kg
same,After Storage in Infusion Bag and Collection from Infusion Set pH,[1]; [4],7.16
same,After Storage in Infusion Bag and Collection from Infusion Set % Remaining Compared to T = 0,[1]; [5],(100.0%)
same,After Storage in Infusion Bag and Collection from Infusion Set Concentration,[1]; [5],0.434 mg/mL
same,After Storage in Infusion Bag and Collection from Infusion Set Osmolality,[1]; [5],282 mmol/kg
same,After Storage in Infusion Bag and Collection from Infusion Set pH,[1]; [5],7.13
same,After Storage in Infusion Bag and Collection from Infusion Set % Remaining Compared to T = 0,[1]; [6],(100.0%)
same,After Storage in Infusion Bag and Collection from Infusion Set Concentration,[1]; [6],0.424 mg/mL
same,After Storage in Infusion Bag and Collection from Infusion Set Osmolality,[1]; [6],288 mmol/kg
same,After Storage in Infusion Bag and Collection from Infusion Set pH,[1]; [6],7.20
same,After Storage in Infusion Bag and Collection from Infusion Set % Remaining Compared to T = 0,[1]; [7],(99.8%)
same,After Storage in Infusion Bag and Collection from Infusion Set Concentration,[1]; [7],0.433 mg/mL
same,After Storage in Infusion Bag and Collection from Infusion Set Osmolality,[1]; [7],286 mmol/kg
same,After Storage in Infusion Bag and Collection from Infusion Set pH,[1]; [7],7.09
same,After Storage in Infusion Bag and Collection from Infusion Set % Remaining Compared to T = 0,[1]; [8],(99.8%)
same,After Storage in Infusion Bag and Collection from Infusion Set Concentration,[1]; [8],2.520 mg/mL
same,After Storage in Infusion Bag and Collection from Infusion Set Osmolality,[1]; [8],283 mmol/kg
same,After Storage in Infusion Bag and Collection from Infusion Set pH,[1]; [8],5.70
same,After Storage in Infusion Bag and Collection from Infusion Set % Remaining Compared to T = 0,[1]; [9],(100.0%)
same,After Storage in Infusion Bag and Collection from Infusion Set Concentration,[1]; [9],2.530 mg/mL
same,After Storage in Infusion Bag and Collection from Infusion Set Osmolality,[1]; [9],283 mmol/kg
same,After Storage in Infusion Bag and Collection from Infusion Set pH,[1]; [9],5.72
same,After Storage in Infusion Bag and Collection from Infusion Set % Remaining Compared to T = 0,[1]; [10],(99.6%)
same,After Storage in Infusion Bag and Collection from Infusion Set Concentration,[1]; [10],2.520 mg/mL
same,After Storage in Infusion Bag and Collection from Infusion Set Osmolality,[1]; [10],279 mmol/kg
same,After Storage in Infusion Bag and Collection from Infusion Set pH,[1]; [10],5.83
same,After Storage in Infusion Bag and Collection from Infusion Set % Remaining Compared to T = 0,[1]; [11],(100.4%)
same,After Storage in Infusion Bag and Collection from Infusion Set Concentration,[1]; [11],2.460 mg/mL
same,After Storage in Infusion Bag and Collection from Infusion Set Osmolality,[1]; [11],283 mmol/kg
same,After Storage in Infusion Bag and Collection from Infusion Set pH,[1]; [11],5.81
same,deviation of 25HC3S concentrations from the initial T=0 time point,"[1]; 0.9% sodium chloride, after 24 hours at room temperature and at 2-8° C., and after elution through infusion sets",≤ 2.0%
same,osmolality trend,[1]; sodium chloride drug containing solutions,no consistent trends over time in the infusion bag or after elution through the infusion sets
same,solution visual appearance,"[1]; sodium chloride, all three concentrations, after 24 hours in bags and after elution",remained as clear and colorless solutions
same,decrease of pH over 24 hours in the infusion bags,[1]; [12],~0.5 pH unit
same,pH change after elution through the infusion sets,[1]; [12],decrease by approximately a tenth of a pH
same,pH change after elution through the infusion sets,[1]; [13],decrease by a few tenths of a pH
same,pH trend over time in the infusion bags,[1]; [13],no consistent trends over time in the infusion bags
same,pH change after elution through the infusion sets,[1]; [14],drop by a few tenths of a pH
same,pH change over time in the infusion bags,[1]; [14],slight decrease by a tenth of a pH
same,state of drug in the prepared compositions,"[2]; 6 wt % 25HC3S, compositions of Tables 31 and 32",all in solution
same,maximum drug loading achieved,[2]; Carbopol based creams or gels,1 wt %
same,drug solubility,[2]; in EtOH,~3 mg/mL
same,drug solubility,[2]; in PEG 400,~130 mg/mL
same,drug solubility,[2]; in PG,~30 mg/mL
